{
  "source": "patent US9458154B2",
  "about": "“Kinase inhibitors” (Chiesi Farmaceutici S.p.A., priority 2011, dated 2016)",
  "note": "pIC50: −log10 of the molar value.",
  "data": [
    {"molecular_target": "T1, p38alpha (Homo sapiens, UniProt Q16539)", "T1 construct": "purchased Invitrogen PV3304", "T1 sequence (Q16539 whole entry, the tested form may be a part)": "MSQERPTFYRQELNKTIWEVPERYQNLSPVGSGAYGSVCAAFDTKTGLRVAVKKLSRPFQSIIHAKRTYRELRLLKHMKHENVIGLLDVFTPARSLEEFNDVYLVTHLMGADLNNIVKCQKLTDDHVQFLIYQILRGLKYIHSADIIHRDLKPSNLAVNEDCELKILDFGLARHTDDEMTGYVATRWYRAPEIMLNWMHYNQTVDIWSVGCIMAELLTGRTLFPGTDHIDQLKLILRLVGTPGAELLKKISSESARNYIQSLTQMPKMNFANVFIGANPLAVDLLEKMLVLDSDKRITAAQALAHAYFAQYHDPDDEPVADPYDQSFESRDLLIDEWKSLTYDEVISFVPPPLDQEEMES", "experiment": "P38alpha Enzyme Inhibition Assay (Alphascreen kinase activity assay)", "format": "biochemical", "conditions": "100 pM p38alpha, ATF-2 fusion protein substrate, 250 μM ATP, 2 hours preincubation at 25° C.; read-out: p38α inhibition", "protocol": "P38alpha Enzyme Inhibition Assay\nThe inhibitory activity of compounds was determined using an Alphascreen® (Perkin Elmer) based kinase activity assay. Kinase reactions consisted of 25 mM HEPES pH 7.5, 10 mM MgCl2, 100 μM Na3VO4, 2 mM DTT, 0.05 mg/ml Tween 20, 100 pM p38alpha (Invitrogen, PV3304), 1% DMSO and 0.3 μg/ml ATF-2 fusion protein (New England Biolabs, 9224). Compounds were incubated under these conditions for 2 hours, at 25° C., prior to the initiation of the kinase activity by the addition of the 250 μM ATP. Reaction volumes were 20 uL. After 1 hr at 25° C. reactions were stopped by the adding 10 uL of 25 mM HEPES pH 7.5 containing 62.5 mM EDTA, 0.05% Triton X-100, 10% BSA and 0.83 ng/uL anti-phospho-ATF2 antibody (Abcam, ab28812). Detection was performed by measuring luminescence following the addition of Alphascreen Donor beads (Perkin Elmer 6765300) and Protein A Alphascreen Acceptor beads (Perkin Elmer 6760137), both at a final concentration of 20 ug/ml. IC50 values were determined from concentration-response curves.", "values": [
      {"smiles": "CC(C)c1nnc2ccc(O[C@@H]3CC[C@H](NC(=O)Nc4cc(F)cc(N5CCOCC5)c4)c4ccccc43)cn12", "note": "[Example 29, 1-(3-Fluoro-5-morpholin-4-yl-phenyl)-3-[(1S,4R)-4-(3-isopropyl-[1,2,4]triazolo[4,3-a]pyridin-6-yloxy)-1,2,3,4-tetrahydro-naphthalen-1-yl]-urea]", "pIC50": "> 8.00"},
      {"smiles": "CC(C)c1nnc2ccc(O[C@@H]3CC[C@H](NC(=O)NC4CC4)c4ccccc43)cn12", "note": "[Example 13, 1-Cyclopropyl-3-[(1S,4R)-4-(3-isopropyl-[1,2,4]triazolo[4,3-a]pyridin-6-yloxy)-1,2,3,4-tetrahydro-naphthalen-1-yl]-urea]", "pIC50": "7.00 to 8.00"},
      {"smiles": "CC(C)c1nnc2ccc(O[C@@H]3CC[C@H](NC(=O)Nc4cc(C(C)(C)C)nn4-c4cccc(OCCN5CCOCC5)c4)c4ccccc43)cn12", "note": "[Example 6, 1-{5-tert-Butyl-2-[3-(2-morpholin-4-yl-ethoxy)-phenyl]-2H-pyrazol-3-yl}-3-[(1S,4R)-4-(3-isopropyl-[1,2,4]triazolo[4,3-a]pyridin-6-yloxy)-1,2,3,4-tetrahydro-naphthalen-1-yl]-urea]", "pIC50": "> 8.00"},
      {"smiles": "COc1c(NC(=O)N[C@H]2CC[C@@H](Oc3ccc4nnc(C(C)C)n4c3)c3ccccc32)cc(C(C)(C)C)cc1NS(C)(=O)=O", "note": "[Example 28, N-(5-tert-Butyl-3-{3-[(1S,4R)-4-(3-isopropyl-[1,2,4]triazolo[4,3-a]pyridin-6-yloxy)-1,2,3,4-tetrahydro-naphthalen-1-yl]-ureido}-2-methoxy-phenyl)-methanesulfonamide]", "pIC50": "> 8.00"},
      {"smiles": "CC(C)c1nnc2ccc(O[C@@H]3CC[C@H](NC(=O)Nc4cc(C(C)(C)C)on4)c4ccccc43)cn12", "note": "[Example 17, 1-(5-tert-Butyl-isoxazol-3-yl)-3-[(1S,4R)-4-(3-isopropyl-[1,2,4]triazolo[4,3-a]pyridin-6-yloxy)-1,2,3,4-tetrahydro-naphthalen-1-yl]-urea]", "pIC50": "> 8.00"},
      {"smiles": "CC(C)c1nnc2ccc(O[C@H]3CC[C@H](NC(=O)NC4CC4)c4ccccc43)cn12", "note": "[Example 2, 1-Cyclopropyl-3-[(1S,4S)-4-(3-isopropyl-[1,2,4]triazolo[4,3-a]pyridin-6-yloxy)-1,2,3,4-tetrahydro-naphthalen-1-yl]-urea]", "pIC50": "> 8.00"},
      {"smiles": "CC(C)c1nnc2ccc(O[C@H]3CC[C@H](NC(=O)Nc4cc(C(C)(C)C)nn4-c4ccc(O)c(Cl)c4)c4ccccc43)cn12", "note": "[Example 25, 1-[5-tert-Butyl-2-(3-chloro-4-hydroxy-phenyl)-2H-pyrazol-3-yl]-3-[(1S,4S)-4-(3-isopropyl-[1,2,4]triazolo[4,3-a]pyridin-6-yloxy)-1,2,3,4-tetrahydro-naphthalen-1-yl]-urea]", "pIC50": "> 8.00"},
      {"smiles": "Cc1ccc(-n2nc(C(C)(C)C)cc2NC(=O)N[C@H]2CC[C@@H](Oc3ccc4nnc(-c5ccccc5Cl)n4c3)c3ccccc32)cc1", "note": "[Example 23]", "pIC50": "> 8.00"},
      {"smiles": "CC(C)c1nnc2ccc(O[C@@H]3CC[C@H](NC(=O)Nc4cc(C(C)(C)C)nn4-c4cccc(OCCN(C)C)c4)c4ccccc43)cn12", "note": "[Example 11, 1-{5-tert-Butyl-2-[3-(2-dimethylamino-ethoxy)-phenyl]-2H-pyrazol-3-yl}-3-[(1S,4R)-4-(3-isopropyl-[1,2,4]triazolo[4,3-a]pyridin-6-yloxy)-1,2,3,4-tetrahydro-naphthalen-1-yl]-urea]", "pIC50": "> 8.00"},
      {"smiles": "CC(C)c1nnc2ccc(O[C@@H]3CC[C@H](NC(=O)Nc4cc(C(C)(C)C)nn4-c4ccc(Cl)c(O)c4)c4ccccc43)cn12", "note": "[Example 14, 1-(5-tert-Butyl-2-(4-chloro-3-hydroxyphenyl)-2H-pyrazol-3-yl)-3-[(1S,4R)-4-(3-isopropyl-[1,2,4]triazolo[4,3-a]pyridin-6-yloxy)-1,2,3,4-tetrahydronaphthalen-1-yl]-urea]", "pIC50": "> 8.00"},
      {"smiles": "CC(C)c1nnc2ccc(O[C@@H]3CC[C@H](NC(=O)Nc4cc(C(C)(C)C)nn4-c4ccccc4)c4ccccc43)cn12", "note": "[Example 1, 1-(5-tert-Butyl-2-phenyl-2H-pyrazol-3-yl)-3-[(1S,4R)-4-(3-isopropyl-[1,2,4]triazolo[4,3-a]pyridin-6-yloxy)-1,2,3,4-tetrahydro-naphthalen-1-yl]-urea]", "pIC50": "> 8.00"},
      {"smiles": "Cc1ccc(-n2nc(C(C)(C)C)cc2NC(=O)N[C@H]2CC[C@@H](Oc3ccc4nnc(-c5ccccc5OCc5ccccc5)n4c3)c3ccccc32)cc1", "note": "[Example 24, 1-{(1S,4R)-4-[3-(2-Benzyloxy-phenyl)-[1,2,4]triazolo[4,3-a]pyridin-6-yloxy)-1,2,3,4-tetrahydro-naphthalen-1-yl}-3-(5-tert-butyl-2-p-tolyl-2H-pyrazol-3-yl)-urea]", "pIC50": "> 8.00"},
      {"smiles": "Cc1ccc(-n2nc(C(C)(C)C)cc2NC(=O)N[C@H]2CC[C@@H](Oc3ccn4c(C(C)C)nnc4c3)c3ccccc32)cc1", "note": "[Example 5, 1-(5-tert-Butyl-2-p-tolyl-2H-pyrazol-3-yl)-3-[(1S,4R)-4-(3-isopropyl-[1,2,4]triazolo[4,3-a]pyridin-7-yloxy)-1,2,3,4-tetrahydro-naphthalen-1-yl]-urea]", "pIC50": "> 8.00"},
      {"smiles": "Cc1ccc(-n2nc(C(C)(C)C)cc2NC(=O)N[C@H]2CC[C@@H](Oc3ccc4nnc(-c5ccccc5SCCO)n4c3)c3ccccc32)cc1", "note": "[Example 10]", "pIC50": "> 8.00"},
      {"smiles": "Cc1ccc(-n2nc(C(C)(C)C)cc2NC(=O)N[C@H]2CC[C@@H](Oc3ccc4nnc(-c5ccccn5)n4c3)c3ccccc32)cc1", "note": "[Example 22, 1-(5-tert-Butyl-2-p-tolyl-2H-pyrazol-3-yl)-3-[(1S,4R)-4-(3-pyridin-2-yl-[1,2,4]triazolo[4,3-a]pyridin-6-yloxy)-1,2,3,4-tetrahydro-naphthalen-1-yl}-urea]", "pIC50": "> 8.00"},
      {"smiles": "CC(C)c1nnc2ccc(O[C@H]3C[C@H](NC(=O)Nc4cc(C(C)(C)C)on4)c4ccccc43)cn12", "note": "[Example 8, 1-(5-tert-Butyl-isoxazol-3-yl)-3-[(1S,3S)-3-(3-isopropyl-[1,2,4]triazolo[4,3-a]pyridin-6-yloxy)-indan-1-yl]-urea]", "pIC50": "> 8.00"},
      {"smiles": "Cc1ccc(-n2nc(C(C)(C)C)cc2NC(=O)N[C@H]2CC[C@@H](Oc3ccc4nnc(-c5cccc(OCCN6CCOCC6)c5)n4c3)c3ccccc32)cc1", "note": "[Example 4, 1-(5-tert-Butyl-2-p-tolyl-2H-pyrazol-3-yl)-3-[(1S,4R)-4-{3-[3-(2-morpholin-4-yl-ethoxy)-phenyl]-[1,2,4]triazolo[4,3-a]pyridin-6-yloxy}-1,2,3,4-tetrahydro-naphthalen-1-yl)-urea]", "pIC50": "> 8.00"},
      {"smiles": "Cc1ccc(-n2nc(C(C)(C)C)cc2NC(=O)N[C@H]2CC[C@@H](Oc3ccc4nnc(C5CCCC5)n4c3)c3ccccc32)cc1", "note": "[Example 18, 1-(5-tert-Butyl-2-p-tolyl-2H-pyrazol-3-yl)-3-[(1S,4R)-4-(3-cyclopentyl-[1,2,4]triazolo[4,3-a]pyridin-6-yloxy)-1,2,3,4-tetrahydro-naphthalen-1-yl]-urea]", "pIC50": "> 8.00"},
      {"smiles": "CC(C)c1nnc2ccc(O[C@H]3CC[C@H](NC(=O)Nc4cc(C(C)(C)C)nn4-c4ccc(Cl)c(O)c4)c4ccccc43)cn12", "note": "[Example 27, 1-[5-tert-Butyl-2-(4-chloro-3-hydroxy-phenyl)-2H-pyrazol-3-yl]-3-[(1S,4S)-4-(3-isopropyl-[1,2,4]triazolo[4,3-a]pyridin-6-yloxy)-1,2,3,4-tetrahydro-naphthalen-1-yl]-urea]", "pIC50": "> 8.00"},
      {"smiles": "CC(C)c1nnc2ccc(O[C@@H]3CC[C@H](NC(=O)Nc4cc(C(C)(C)C)nn4-c4ccc(O)cc4)c4ccccc43)cn12", "note": "[Example 15, 1-[5-tert-Butyl-2-(4-hydroxy-phenyl)-2H-pyrazol-3-yl]-3-[(1S,4R)-4-(3-isopropyl-[1,2,4]triazolo[4,3-a]pyridin-6-yloxy)-1,2,3,4-tetrahydro-naphthalen-1-yl]-urea]", "pIC50": "> 8.00"},
      {"smiles": "CC(C)c1nnc2ccc(O[C@H]3CC[C@H](NC(=O)Nc4cc(F)cc(N5CCOCC5)c4)c4ccccc43)cn12", "note": "[Example 30, 1-(3-Fluoro-5-morpholin-4-yl-phenyl)-3-[(1S,4S)-4-(3-isopropyl-[1,2,4]triazolo[4,3-a]pyridin-6-yloxy)-1,2,3,4-tetrahydro-naphthalen-1-yl]-urea]", "pIC50": "> 8.00"},
      {"smiles": "Cc1ccc(-n2nc(C(C)(C)C)cc2NC(=O)N[C@H]2CC[C@@H](Oc3ccc4nnc(C5CC5)n4c3)c3ccccc32)cc1", "note": "[Example 21, 1-(5-tert-Butyl-2-p-tolyl-2H-pyrazol-3-yl)-3-[(1S,4R)-4-(3-cyclopropyl-[1,2,4]triazolo[4,3-a]pyridin-6-yloxy)-1,2,3,4-tetrahydro-naphthalen-1-yl}-urea]", "pIC50": "> 8.00"},
      {"smiles": "CC(C)c1nnc2ccc(O[C@@H]3CC[C@H](NC(=O)Nc4cc(C(C)(C)C)nn4-c4ccc(F)c(CN5CCOCC5)c4)c4ccccc43)cn12", "note": "[Example 31, 1-{5-tert-Butyl-2-(4-fluoro-3-morpholin-4-ylmethyl-phenyl)-2H-pyrazol-3-yl}-3-[(1S,4R)-4-(3-isopropyl-[1,2,4]triazolo[4,3-a]pyridin-6-yloxy)-1,2,3,4-tetrahydro-naphthalen-1-yl]-urea]", "pIC50": "> 8.00"},
      {"smiles": "Cc1ccc(-n2nc(C(C)(C)C)cc2NC(=O)N[C@H]2CC[C@@H](Oc3ccc4nnc(-c5c(Cl)cccc5Cl)n4c3)c3ccccc32)cc1", "note": "[Example 20]", "pIC50": "> 8.00"},
      {"smiles": "Cc1ccc(-n2nc(C(C)(C)C)cc2NC(=O)N[C@H]2CC[C@@H](Oc3ccc4nnc(C5CCCCC5)n4c3)c3ccccc32)cc1", "note": "[Example 26, 1-(5-tert-Butyl-2-p-tolyl-2H-pyrazol-3-yl)-3-[(1S,4R)-4-(3-cyclohexyl-[1,2,4]triazolo[4,3-a]pyridin-6-yloxy)-1,2,3,4-tetrahydro-naphthalen-1-yl]-urea]", "pIC50": "> 8.00"}
    ]}
  ]
}
